Data reported in publication PMC5053523, “In Vitro Antibacterial Activity of Rhodanine Derivatives against Pathogenic Clinical Isolates” (PLoS ONE, 2016).
Converted amounts (≈) assume the structure as drawn. Like-named read-outs stand apart in the source and are kept apart here.

Experiments:
Format in all cases: cell-based
[1] = tested on: vancomycin resistant enterococci (VRE); experiment: Broth microdilution MIC50/MIC90, VRE panel; settings: Enterococcus, 10 VRE strains
Salmonella Typhimurium = experiment: MIC with/without PMBN, Salmonella Typhimurium
Protocol: (§1) The MIC of the rhodanines and control antibiotics, in the presence of a sub-inhibitory concentration of colistin or polymixin B nonapeptide (PMBN), against Gram-negative bacteria was evaluated as described before. The antibacterial activity of the rhodanines was further investigated against E. coli SM1411Δ acrAB, a strain that is deficient in the multidrug-resistant AcrAB efflux pump, as described before.

Klebsiella pneumoniae = experiment: MIC with/without PMBN, Klebsiella pneumoniae
Protocol: as §1

B. licheniformis = experiment: Broth microdilution MIC/MBC, B. licheniformis; settings: Bacillus licheniformis; for MBC: read-out: MBC; for MIC: read-out: MIC
Acinetobacter baumannii = experiment: MIC with/without PMBN, Acinetobacter baumannii
Protocol: as §1

[2] = tested on: vancomycin resistant enterococci (VRE) E. faecalis; experiment: Broth microdilution MIC/MBC, VRE E. faecalis; settings: for MIC: read-out: MIC
[3] = NCIB9375, B. licheniformis Gibson 46 (NCIB 9375) NR-2494
[4] = NRS712, B. licheniformis NRS 712 NR-2499
[5] = E. faecalis NR31972 Strain SF 28073

`CC(=O)NC[C@H]1CN(c2ccc(N3CCOCC3)c(F)c2)C(=O)O1` [Linezolid, linezolid, reference compound] gave an MIC90 ([1]; VRE, read-out: MIC 90) of 2 µM (≈ 0.675 µg/mL), an MIC50 ([1]; read-out: MIC 50) of 2 µM (≈ 0.675 µg/mL) and an MIC (Salmonella Typhimurium; Salmonella Typhimurium ATCC 700720, PMBN (+) 4 μg/mL, read-out: MIC) of 64 µM (≈ 21.6 µg/mL). It also gave an MIC (Salmonella Typhimurium; Salmonella enterica, ATCC 700720 / TYPHIMURIUM) greater than 128 µM, an MIC (Klebsiella pneumoniae; Klebsiella pneumoniae ATCC BAA 1706, PMBN (+) 4 μg/mL) greater than 64 µM and an MIC (Klebsiella pneumoniae; Klebsiella pneumoniae ATCC BAA 2146, PMBN (+) 4 μg/mL) greater than 64 µM. It also gave an MIC (Klebsiella pneumoniae; Klebsiella pneumoniae, BAA1706) greater than 128 µM, an MIC (Klebsiella pneumoniae; Klebsiella pneumoniae, BAA2146) greater than 128 µM and an MBC (B. licheniformis; [3]) of 2 µM (≈ 0.675 µg/mL). The MIC (B. licheniformis; [3]) was 1 µM (≈ 0.337 µg/mL), the MBC (B. licheniformis; [4]) was 4 µM (≈ 1.35 µg/mL) and the MIC (B. licheniformis; [4]) was 2 µM (≈ 0.675 µg/mL). It also gave an MIC (Acinetobacter baumannii; Acinetobacter baumannii ATCC BAA747, PMBN (+) 4 μg/mL, read-out: MIC) greater than 64 µM, an MIC (Acinetobacter baumannii; Acinetobacter baumannii ATCC BAA19606, PMBN (+) 4 μg/mL, read-out: MIC) greater than 64 µM and an MIC (Acinetobacter baumannii; Acinetobacter baumannii, ATCCBAA747) greater than 128 µM. It also gave an MIC (Acinetobacter baumannii; Acinetobacter baumannii, ATCCBAA19606) greater than 128 µM, an MBC ([2]; E. faecalis ERV103 HM-934) greater than 64 µM and an MIC ([2]; E. faecalis ERV103 HM-934) of 2 µM (≈ 0.675 µg/mL). The MBC [2, 5] was 32 µM (≈ 10.8 µg/mL), the MIC [2, 5] was 2 µM (≈ 0.675 µg/mL) and the MBC ([2]; E. faecalis R712 HM-335) was 32 µM (≈ 10.8 µg/mL). It also gave an MIC ([2]; E. faecalis R712 HM-335) of 2 µM (≈ 0.675 µg/mL), an MBC ([2]; E. faecalis S613 HM-334) of 64 µM (≈ 21.6 µg/mL) and an MIC ([2]; E. faecalis S613 HM-334) of 2 µM (≈ 0.675 µg/mL). The MBC ([2]; E. faecalis TX0104 HM-201) was greater than 64 µM and the MIC ([2]; E. faecalis TX0104 HM-201) was 2 µM (≈ 0.675 µg/mL).
